Test results from patent US20260224538A1 (Purdue Research Foundation, priority 2023, published 2026).

What was measured:
Assay type in all cases: biochemical
α-synuclein (α-syn) = target: T1, α-synuclein (α-syn) (Homo sapiens, UniProt P37840); assay: Thioflavin-T (ThT) fluorescence assay of α-syn fibril formation; details: for remaining activity at 100 µM: compounds at 100 μM, α-syn 6.25 μM, control 0.25% DMSO, read-out: ThT a-Syn (%), maximum thioflavin T (ThT) intensity in percentage
T1 construct: purchased rPeptide
Description: (§1) Thioflavin-T (ThT) fluorescence assays. Thioflavin-T (ThT) fluorescence assays were used to monitor fibril formation of recombinant Ap (fragments 1-40 and 1-42), recombinant α-syn, recombinant tau isoform 2N4R, synthetic IAPP, and synthetic TTR peptides treated with BTA and its derivatives. The IAPP ThT assay was performed in 10 mM PBS (pH 7.4) at a final concentration of 10 μM for both IAPP and ThT as published previously. Aβ fragments 1-40 and 1-42 were tested at 7 μM in 10 mM of PBS using ThT at a final concentration of 20 μM. Kinetics of α-syn fibrillization were performed as published previously.^36-37 TTR fragment kinetics of fibril formation were assessed at 10 μM in 100 mM sodium acetate buffer supplemented with 100 mM KCl and 1 mM ethylenediaminetetraacetic acid (EDTA) (pH 4) with 20 μM ThT. The fluorescence emission experiments were performed with the excitation and emission wavelengths set at 440 and 485 nm, respectively, with a Synergy HT multi-mode microplate reader (BioTek, Winooski, VT). Samples were measured in three replicates, and the experiments were repeated three times using at least two different stock solutions. For each time point, arbitrary units of fluorescence were calculated from the mean values normalized against the maximum value in each completed assay. The lag time for each condition was calculated as previously described. All results contained in histograms were presented as mean±SEM. Data were analyzed by the one-way analysis of variance with Dunnett's multiple comparisons between controls and compounds. Differences were considered statistically significant at p<0.05.
(§2) Compounds with the highest anti-fibrillary activity were tested at 3.125, 6.25, 12.5, 25, 50, and 100 μM to obtain dose-response curves with prepared α-syn and 2N4R tau at 6.25 μM and 6 μM, respectively. Compounds were tested with α-syn using a previously published procedure. Concerning the tau (isoform 2N4R) kinetics of fibril formation, measurements of ThT fluorescence were performed with a solution of the protein diluted to a final concentration of 6 μM in PBS (pH 7.4) supplemented with 1.5 μM heparin, 20 μM ThT, 2.5 mM DTT, and 100 μM compound. Aliquots of the diluted protein solution (100 μL each) were pipetted into the wells of a 96-well plate, and a Teflon ball was added to each well. The plate was incubated at 37° C. with constant shaking at 1,000 rpm in a Tecan Spark plate reader. ThT fluorescence was measured every 15 minutes with excitation and emission wavelengths of 440 nm and 480 nm, and the data were plotted using GraphPad Prism.

α-syn [1] = target: T2, α-syn (Homo sapiens, UniProt P37840); assay: Photo-induced cross-linking of unmodified proteins (PICUP), α-syn oligomerization; details: compound 200 μM
T2 construct: purchased rPeptide

tau isoform 2N4R [2] = target: T3, tau isoform 2N4R (Homo sapiens, UniProt P10636); assay: ThT kinetics of tau isoform 2N4R fibril formation; details: tau 6 μM, compound 100 μM
T3 construct: made in house; host or cells: E. coli BL21(DE3)
Description: (§3) The bacterial expression plasmid consisting of the vector pRK172 carrying a cDNA encoding the human Tau 2N4R isoform was obtained from Dr. David Eliezer (Weill Cornell Medicine, New York, NJ). For protein expression, E. coli BL21(DE3) cells were transformed with the plasmid and grown in LB media supplemented with ampicillin (100 μg/mL). Protein over-expression was induced by the addition of 1 mM IPTG for 4 hours at 37° C., and cells were pelleted by centrifugation at 6,000 g for 15 minutes at 4° C. The cells were resuspended in lysis buffer (20 mM MES, 400 mM NaCl, 0.2 mM MgCl2, 1 mM EGTA, protease inhibitor cocktail (P8340, Sigma Aldrich), 0.25 mg/mL lysozyme, and 1 μg/mL DNase 1, pH 6.8) and lysed by a French press cell disruptor at 4° C., after which the lysate was boiled for 20 minutes. Denatured proteins were pelleted by centrifugation at 30,000 g for 30 minutes at 4° C., and the supernatant was dialyzed overnight against cation exchange buffer (20 mM MES, 50 mM NaCl, 1 mM MgCl2, 1 mM EGTA, 2 mM DTT, 0.1 mM PMSF, pH 6.8). The dialysate was loaded onto a HiPrep SP HP column, and proteins were eluted with a linear gradient ranging from 50 mM to 1 M NaCl. Fractions containing tau isoform 2N4R were pooled, and the resulting protein solution was dialyzed against PBS (pH 7.4) and stored at −80° C.
as §2

[3] = target: T4, transthyretin fragment peptide (TTR81-127) (Homo sapiens, UniProt P02766); assay: ThT fluorescence assay of TTR81-127 fibril formation; details: for remaining activity at 100 µM: compounds at 100 μM, TTR81-127 10 μM, control 0.25% DMSO, read-out: ThT TTR81-127 (%), maximum thioflavin T (ThT) intensity in percentage
T4 construct: TTR fragment 81-127 was obtained from AnaSpec; purchased AnaSpec; host or cells: synthetic peptide
Description: as §1

α-syn [4] = target: T2, α-syn; assay: Photo-induced cross-linking of unmodified proteins (PICUP), α-syn oligomerization; details: compound 50 μM, molar ratio 1:5 (protein:compound)
Description: (§4) Photo-induced Cross-linking of Unmodified Proteins (PICUP) Assay. To induce oligomerization by cross-linking, α-syn (from Rpeptide, LLC) and tau isoform 2N4R were diluted in 10 mM phosphate buffer (pH 7.4) to reach a final concentration of 10 μM. Different compounds were added to the protein solution at a final concentration of 50 μM, resulting in a molar ratio of 1:5. To confirm the gradual effect of the compounds on the inhibition of α-syn oligomerization, the compounds were tested at final concentrations of 3.125, 6.25, 12.5, 25, and 50 μM. The controls consisted of samples without light exposition, without Ru(bpy) or ammonium persulfate, and without compound (i.e., 0.125% DMSO). The cross-linking reaction was initiated by the addition of 2 μL of Ru(bpy) (300 μM final concentration) and 2 μL ammonium persulfate (6 mM final concentration). Samples were irradiated immediately. Light exposure was of a one-second duration for α-syn and a three-second duration for tau isoform 2N4R, with a 53 W (120 V) incandescent lamp installed in a homemade dark-box. Each tube contained a final volume of 20 μL. After irradiation, 8.3 μL of Laemmli loading buffer containing 15% β-mercaptoethanol were immediately added to the solution, followed by incubation at 95° C. for 10 minutes. The cross-linked samples were separated on a 16% SDS-PAGE gel and visualized by Coomassie blue staining.

[5] = target: T5, islet amyloid polypeptide (IAPP) (Homo sapiens, UniProt P10997); assay: ThT fluorescence assay of IAPP fibril formation; details: screen on prone-to-aggregate proteins (FIG. 2A, FIG. 4A); IAPP 10 μM
T5 construct: Human islet amyloid polypeptide (IAPP) was procured from AnaSpec; purchased AnaSpec; host or cells: synthetic peptide
T5 sequence (P10997 34-70 limits assumed): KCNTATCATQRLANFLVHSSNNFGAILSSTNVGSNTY
Description: as §1, with “All results contained in histograms were presented as mean±SEM. Data were analyzed by the one-way analysis of variance with Dunnett's multiple comparisons between controls and compounds. Differences were considered statistically significant at p<0.05.” left out

Aβ1-42 = target: T6, Aβ1-42 (Homo sapiens, UniProt P05067); assay: ThT fluorescence assay of Aβ1-42 fibril formation; details: screen on prone-to-aggregate proteins (FIG. 2A, FIG. 4A); Aβ 7 μM
T6 construct: α-syn, Aβ1-40, Aβ1-42 were procured from rPeptide; purchased rPeptide
Description: as §1

tau isoform 2N4R [6] = target: T3, tau isoform 2N4R; assay: PICUP, tau isoform 2N4R oligomerization; details: compound 50 μM
Description: as §3, §4

Aβ1-40 = target: T7, Aβ1-40 (Homo sapiens, UniProt P05067); assay: ThT fluorescence assay of Aβ1-40 fibril formation; details: screen on prone-to-aggregate proteins (FIG. 4A); Aβ 7 μM
T7 construct: α-syn, Aβ1-40, Aβ1-42 were procured from rPeptide; purchased rPeptide
Description: as §1, with “All results contained in histograms were presented as mean±SEM. Data were analyzed by the one-way analysis of variance with Dunnett's multiple comparisons between controls and compounds. Differences were considered statistically significant at p<0.05.” left out

TTR101-125 = target: T8, TTR101-125 (Homo sapiens, UniProt P02766); assay: ThT fluorescence assay of TTR101-125 fibril formation; details: screen on prone-to-aggregate proteins (FIG. 4A)
T8 construct: TTR fragments 1-25, 26-50, 51-75, 76-100, 81-105, 101-125, and 101-125 were obtained from GenScript; purchased GenScript; host or cells: synthetic peptide
Description: as §1

[7] = screen on prone-to-aggregate proteins (FIG. 2A, FIG. 4A)

T3 sequence (P10636 1-441 isoform P10636-8): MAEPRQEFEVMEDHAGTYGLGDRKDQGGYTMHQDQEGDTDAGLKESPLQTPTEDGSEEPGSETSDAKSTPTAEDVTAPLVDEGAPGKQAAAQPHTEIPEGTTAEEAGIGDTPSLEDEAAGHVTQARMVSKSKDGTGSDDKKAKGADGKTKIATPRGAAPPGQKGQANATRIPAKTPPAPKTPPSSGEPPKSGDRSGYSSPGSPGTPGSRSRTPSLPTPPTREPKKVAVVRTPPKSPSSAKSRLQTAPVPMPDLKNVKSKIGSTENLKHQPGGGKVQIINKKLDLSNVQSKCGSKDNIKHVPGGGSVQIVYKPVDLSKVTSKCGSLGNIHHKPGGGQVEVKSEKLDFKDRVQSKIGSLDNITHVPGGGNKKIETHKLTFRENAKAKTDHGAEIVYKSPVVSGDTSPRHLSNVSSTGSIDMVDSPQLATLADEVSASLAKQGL
T7 sequence (P05067 672-711 limits assumed): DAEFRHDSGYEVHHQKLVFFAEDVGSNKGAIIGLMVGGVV
T6 sequence (P05067 672-713 limits assumed): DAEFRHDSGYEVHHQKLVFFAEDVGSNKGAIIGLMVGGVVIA

SMILES	remaining activity at 100 µM (α-synuclein (α-syn)) [%]	α-syn oligomer formation (PICUP) at high concentration (α-syn [1])	lag time of tau isoform 2N4R fibril formation (tau isoform 2N4R [2])	production of tau isoform 2N4R fibrils (ThT kinetic aggregation curves) (tau isoform 2N4R [2])	remaining activity at 100 µM [3] [%]	α-syn oligomer formation (PICUP) (α-syn [4])	thioflavin T fluorescence intensity, IAPP [5]	thioflavin T fluorescence intensity, α-syn (α-synuclein (α-syn); [7])	thioflavin T fluorescence intensity, TTR81-127 [3, 7]	thioflavin T fluorescence intensity, Aβ1-42 (Aβ1-42)	tau isoform 2N4R oligomer formation (PICUP) (tau isoform 2N4R [6])	thioflavin T fluorescence intensity, Aβ1-40 (Aβ1-40)	thioflavin T fluorescence intensity, TTR101-125 (TTR101-125)
CCNC(=O)N(C(=O)NCC)c1nsc2ccc([N+](=O)[O-])cc12 [Compound 13, N-ethyl-1-[(ethylcarbamoyl)(5-nitro-1,2-benzothiazol-3-yl)amino]formamide]	16.4 ± 7.8	reduced substantially the oligomer formation	delayed the lag time	reduced the production of tau isoform 2N4R fibrils	73.4 ± 1.9	–	–	–	–	–	–	–	–
Clc1nc(Cl)nc(Nc2ccc(-c3nc4ccccc4s3)cc2)n1 [Compound 5, N-[4-(1,3-benzothiazol-2-yl)phenyl]-4,6-dichloro-1,3,5-triazin-2-amine]	> 100	–	–	–	> 100	high molecular weight bands representing the oligomeric species	greater than 100%	greater than 100%	greater than 100%	greater than 100%	high molecular weight bands representing the oligomeric species	greater than 100%	greater than 100%
